Experimental data as given in patent US20180280377A1, “Imidazo[4,5-c]quinolin-2-one Compounds and Their Use in Treating Cancer” (ASTRAZENECA AB, priority 2015, published 2018).

Columns and labels:
Format in all cases: cell-based
[1] = target: T1, mTOR (Homo sapiens, UniProt P42345); assay: mTOR cellular potency assay (phospho-AKT Ser473 in MDA-MB-468 cells); settings: MDA-MB-468 cells, 2 h, phospho-AKT Ser473; Table 2; read-out: Assay d) mTOR Cell IC50
T1 construct: phosphorylation of the Akt protein at Ser473 (AKT lies downstream of PI3Kα in the signal transduction pathway) in the MDA-MB-468 cells; endogenous in cells; host or cells: MDA-MB-468 cells (ATCC HTB 132)
Source text: The following assays were used to measure the effects of the compounds of the present invention: a) ATM cellular potency assay; b) PI3K cellular potency assay; c) mTOR cellular potency assay; d) ATR cellular potency assay. During the description of the assays, generally: • i. The following abbreviations have been used: 4NQO=4-Nitroquinoline N-oxide; Ab=Antibody; BSA=Bovine Serum Albumin; CO2=Carbon Dioxide; DMEM=Dulbecco's Modified Eagle Medium; DMSO=Dimethyl Sulphoxide; EDTA=Ethylenediaminetetraacetic Acid; EGTA=Ethylene Glycol Tetraacetic Acid; ELISA=Enzyme-linked Immunosorbent Assay; EMEM=Eagle's Minimal Essential Medium; FBS=Foetal Bovine Serum; h=H(s); HRP=Horseradish Peroxidase; i.p.=intraperitoneal; PBS=Phosphate buffered saline; PBST=Phosphate buffered saline/Tween; TRIS=Tris(Hydroxymethyl)aminomethane; MTS reagent: [3-(4,5-dimethylthiazol-2-yl)-5-(3-carboxymethoxyphenyl)-2-(4-sulfophenyl)-2H-tetrazolium, inner salt, and an electron coupling reagent (phenazine methosulfate) PMS; s.c. sub-cutaneously. • ii. IC50 values were calculated using a smart fitting model in Genedata.
This assay was used to measure mTOR inhibition in cells. The aim of the phospho-AKT cell based mechanism of action assay using the Acumen Explorer is to identify inhibitors of either PI3Kα or mTOR-Rictor (Rapamycin insensitive companion of mTOR). This is measured by any decrease in the phosphorylation of the Akt protein at Ser473 (AKT lies downstream of PI3Kα in the signal transduction pathway) in the MDA-MB-468 cells following treatment with compound.
MDA-MB-468 cells (human breast adenocarcinoma #ATCC HTB 132) were seeded at 1500 cells/well in 40 μl of DMEM containing 10% FBS and 1% glutamine into Greiner 384 well black flat-bottomed plates. Cell plates were incubated for 18 h in a 37° C. incubator before dosing with compounds of Formula (I) in 100% DMSO using acoustic dispensing. Compounds were dosed in a 12 point concentration range into a randomised plate map. Control wells were generated either by dosing of 100% DMSO (max signal) or addition of a reference compound (a PI3K-62 inhibitor) that completely eliminated the pAKT signal (min control). Plates were incubated at 37° C. for 2 h; cells were then fixed by the addition of […] of a 3.7% formaldehyde solution. After 30 minutes the plates were washed with PBS using a Tecan PW384 plate washer. Wells were blocked and cells permeabilised with the addition of 40 μl of PBS containing 0.5% Tween20 and 1% Marvel™ (dried milk powder) and incubated for 60 minutes at r.t. The plates were washed with PBS containing 0.5% (v/v) Tween20 and 20 μl rabbit anti-phospho AKT Ser473 (Cell Signalling Technologies, #3787) in same PBS-Tween+1% MarvelTM was added and incubated overnight at 4° C.
Plates were washed 3 times with PBS+0.05% Tween 20 using a Tecan PW384. 20 μl of secondary antibody Alexa Fluor 488 anti-Rabbit (Molecular Probes, # A11008) diluted in PBS+0.05% Tween20 containing 1% Marvel™ was added to each well and incubated for 1 h at r.t. Plates were washed three times as before then 20 μl PBS added to each well and plates sealed with a black plate sealer.
The plates were read on an Acumen plate reader as soon as possible, measuring green fluorescence after excitation with 488 nm laser. Using this system IC50 values were generated and quality of plates was determined by control wells. Reference compounds were run each time to monitor assay performance.

[2] = target: T2, ATM (Homo sapiens, UniProt Q13315); assay: ATM cellular potency assay (pATM Ser1981 in irradiated HT29 cells); settings: 1 h compound, X-ray irradiation, pATM (Ser1981); Table 2; read-out: Assay a) ATM Cell IC50
T2 construct: endogenous in cells; host or cells: HT29 cells (ECACC #85061109)
Procedure: (§1) The following assays were used to measure the effects of the compounds of the present invention: a) ATM cellular potency assay; b) PI3K cellular potency assay; c) mTOR cellular potency assay; d) ATR cellular potency assay. During the description of the assays, generally: • i. […] IC50 values were calculated using a smart fitting model in Genedata.
Most ATM molecules in the cell are rapidly phosphorylated on this site after doses of radiation as low as 0.5 Gy, and binding of a phosphospecific antibody is detectable after the introduction of only a few DNA double-strand breaks in the cell.
The rationale of the pATM assay is to identify inhibitors of ATM in cells. HT29 cells are incubated with test compounds for 1 h prior to X-ray-irradiation. 1 h later the cells are fixed and stained for pATM (Ser1981). The fluorescence is read on the arrayscan imaging platform.
The following morning compounds of Formula (I) in 100% DMSO were added to assay plates by acoustic dispensing. After 1 h incubation at 37° C. and 5% CO2, plates (up to 6 at a time) were irradiated using the X-RAD 320 instrument (PXi) with equivalent to 600 cGy. Plates were returned to the incubator for a further 1 h. Then cells were fixed by adding 20 μl of 3.7% formaldehyde in PBS solution and incubating for 20 minutes at r.t. before being washed with 50μl/well PBS, using a Biotek EL405 plate washer. Then 20 μl of 0.1% Triton X100 in PBS was added and incubated for 20 minutes at r.t., to permeabalise cells. Then the plates were washed once with 50 μl/well PBS, using a Biotek EL405 plate washer.
After 1 h incubation at r.t., the plates were washed three times with 50 μl/well PBS, using a Biotek EL405 plate washer, and plates were sealed and kept in PBS at 4° C. until read. Plates were read using an ArrayScan VTI instrument, using an XF53 filter with 10× objective.

[3] = target: T3, ATR (Homo sapiens, UniProt Q13535); assay: ATR cellular potency assay (pChk1 Ser345 in HT29 cells after 4NQO); settings: pChk1 (Ser 345); Table 2; read-out: Assay b) ATR Cell IC50
T3 construct: endogenous in cells; host or cells: HT29 cells (ECACC #85061109)
Procedure: as §1
ATR is a PI3-kinase-related kinase which phosphorylates multiple substrates on serine or threonine residues in response to DNA damage during or replication blocks. Chk1, a downstream protein kinase of ATR, plays a key role in DNA damage checkpoint control. Activation of Chk1 involves phosphorylation of Ser317 and Ser345 (the latter regarded as the preferential target for phosphorylation/activation by ATR).
The following morning compound of Formula (I) in 100% DMSO were added to assay plates by acoustic dispensing. After 1 h incubation at 37° C. and 5% CO2, 40 nl of 3 mM 4NQO in 100% DMSO was added to all wells by acoustic dispensing, except minimum control wells which were left untreated with 4NQO to generate a null response control. Plates were returned to the incubator for a further 1 h. Then cells were fixed by adding 20 μl of 3.7% formaldehyde in PBS solution and incubating for 20 mins at r.t. Then […] of 0.1% Triton X100 in PBS was added and incubated for 10 minutes at r.t., to permeabalise cells. Then the plates were washed once with […] PBS, using a Biotek EL405 plate washer.
After 2 h incubation at r.t., the plates were washed three times with […] PBS, using a Biotek EL405 plate washer, and plates were then sealed with black plate seals until read. Plates were read using an ArrayScan VTI instrument, using an XF53 filter with 10× objective.

T3 sequence (Q13535 whole entry): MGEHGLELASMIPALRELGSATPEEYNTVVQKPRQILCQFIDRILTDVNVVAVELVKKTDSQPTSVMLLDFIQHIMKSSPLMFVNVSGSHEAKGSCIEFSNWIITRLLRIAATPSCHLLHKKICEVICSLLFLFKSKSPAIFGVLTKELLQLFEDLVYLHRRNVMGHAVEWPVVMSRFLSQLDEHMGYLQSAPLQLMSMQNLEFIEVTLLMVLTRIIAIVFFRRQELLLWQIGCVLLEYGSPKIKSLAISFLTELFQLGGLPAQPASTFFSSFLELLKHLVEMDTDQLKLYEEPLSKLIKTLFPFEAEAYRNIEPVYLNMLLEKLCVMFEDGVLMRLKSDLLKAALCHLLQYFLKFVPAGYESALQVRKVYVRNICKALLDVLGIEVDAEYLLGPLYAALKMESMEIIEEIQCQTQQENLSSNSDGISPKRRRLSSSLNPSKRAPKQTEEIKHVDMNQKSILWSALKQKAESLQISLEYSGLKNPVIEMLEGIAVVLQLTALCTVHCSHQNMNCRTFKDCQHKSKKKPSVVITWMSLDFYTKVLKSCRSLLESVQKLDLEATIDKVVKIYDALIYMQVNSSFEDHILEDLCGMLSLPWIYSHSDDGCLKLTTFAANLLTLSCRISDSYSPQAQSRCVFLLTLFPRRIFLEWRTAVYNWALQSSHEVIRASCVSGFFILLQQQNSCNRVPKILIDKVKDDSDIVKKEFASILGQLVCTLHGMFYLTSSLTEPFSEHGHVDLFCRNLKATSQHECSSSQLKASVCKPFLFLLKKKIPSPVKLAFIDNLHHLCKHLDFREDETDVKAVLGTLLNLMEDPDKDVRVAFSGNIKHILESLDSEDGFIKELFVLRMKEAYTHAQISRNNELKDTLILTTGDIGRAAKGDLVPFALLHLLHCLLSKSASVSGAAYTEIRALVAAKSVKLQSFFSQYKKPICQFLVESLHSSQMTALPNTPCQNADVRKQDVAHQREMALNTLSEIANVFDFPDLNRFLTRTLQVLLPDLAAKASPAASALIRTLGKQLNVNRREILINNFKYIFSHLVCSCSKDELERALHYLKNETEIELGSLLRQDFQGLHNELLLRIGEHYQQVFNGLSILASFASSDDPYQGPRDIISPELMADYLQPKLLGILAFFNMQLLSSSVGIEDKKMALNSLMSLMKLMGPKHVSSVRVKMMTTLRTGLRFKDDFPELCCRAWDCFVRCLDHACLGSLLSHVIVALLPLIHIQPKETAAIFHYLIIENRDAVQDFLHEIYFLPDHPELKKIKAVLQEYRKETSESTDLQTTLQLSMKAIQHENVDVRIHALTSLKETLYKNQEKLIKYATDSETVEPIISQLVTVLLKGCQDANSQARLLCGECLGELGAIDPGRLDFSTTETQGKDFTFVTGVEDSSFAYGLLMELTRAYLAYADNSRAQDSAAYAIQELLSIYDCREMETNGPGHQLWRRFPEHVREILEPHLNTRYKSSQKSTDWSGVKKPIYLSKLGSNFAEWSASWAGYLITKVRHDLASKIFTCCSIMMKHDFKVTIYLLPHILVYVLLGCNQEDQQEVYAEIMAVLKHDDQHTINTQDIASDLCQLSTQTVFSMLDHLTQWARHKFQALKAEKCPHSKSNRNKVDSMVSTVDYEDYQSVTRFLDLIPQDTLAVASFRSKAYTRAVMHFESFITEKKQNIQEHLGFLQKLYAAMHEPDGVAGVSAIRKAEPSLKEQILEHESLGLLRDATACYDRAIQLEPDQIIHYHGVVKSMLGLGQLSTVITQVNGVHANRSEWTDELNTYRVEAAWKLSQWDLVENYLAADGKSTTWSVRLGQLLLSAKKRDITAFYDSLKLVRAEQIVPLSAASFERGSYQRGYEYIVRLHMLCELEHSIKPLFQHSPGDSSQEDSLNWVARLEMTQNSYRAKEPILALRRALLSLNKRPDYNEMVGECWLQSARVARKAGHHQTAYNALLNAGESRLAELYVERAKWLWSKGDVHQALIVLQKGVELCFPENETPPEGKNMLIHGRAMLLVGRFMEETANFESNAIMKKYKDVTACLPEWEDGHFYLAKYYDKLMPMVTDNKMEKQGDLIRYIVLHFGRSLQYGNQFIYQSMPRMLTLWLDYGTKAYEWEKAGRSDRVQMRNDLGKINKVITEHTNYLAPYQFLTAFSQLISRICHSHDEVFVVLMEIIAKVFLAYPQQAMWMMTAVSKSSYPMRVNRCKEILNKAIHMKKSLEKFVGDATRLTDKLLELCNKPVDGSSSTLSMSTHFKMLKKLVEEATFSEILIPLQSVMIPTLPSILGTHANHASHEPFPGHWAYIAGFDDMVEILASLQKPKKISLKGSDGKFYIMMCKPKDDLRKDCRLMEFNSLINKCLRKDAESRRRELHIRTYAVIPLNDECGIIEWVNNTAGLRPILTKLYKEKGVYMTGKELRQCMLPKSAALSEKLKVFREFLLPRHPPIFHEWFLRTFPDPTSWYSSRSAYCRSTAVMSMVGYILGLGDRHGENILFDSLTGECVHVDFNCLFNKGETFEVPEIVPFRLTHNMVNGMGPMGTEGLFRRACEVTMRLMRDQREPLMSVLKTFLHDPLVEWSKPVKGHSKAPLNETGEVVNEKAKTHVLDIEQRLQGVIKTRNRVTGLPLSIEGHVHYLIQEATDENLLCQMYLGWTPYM
T3 sequence (Q8WXE1 whole entry partner): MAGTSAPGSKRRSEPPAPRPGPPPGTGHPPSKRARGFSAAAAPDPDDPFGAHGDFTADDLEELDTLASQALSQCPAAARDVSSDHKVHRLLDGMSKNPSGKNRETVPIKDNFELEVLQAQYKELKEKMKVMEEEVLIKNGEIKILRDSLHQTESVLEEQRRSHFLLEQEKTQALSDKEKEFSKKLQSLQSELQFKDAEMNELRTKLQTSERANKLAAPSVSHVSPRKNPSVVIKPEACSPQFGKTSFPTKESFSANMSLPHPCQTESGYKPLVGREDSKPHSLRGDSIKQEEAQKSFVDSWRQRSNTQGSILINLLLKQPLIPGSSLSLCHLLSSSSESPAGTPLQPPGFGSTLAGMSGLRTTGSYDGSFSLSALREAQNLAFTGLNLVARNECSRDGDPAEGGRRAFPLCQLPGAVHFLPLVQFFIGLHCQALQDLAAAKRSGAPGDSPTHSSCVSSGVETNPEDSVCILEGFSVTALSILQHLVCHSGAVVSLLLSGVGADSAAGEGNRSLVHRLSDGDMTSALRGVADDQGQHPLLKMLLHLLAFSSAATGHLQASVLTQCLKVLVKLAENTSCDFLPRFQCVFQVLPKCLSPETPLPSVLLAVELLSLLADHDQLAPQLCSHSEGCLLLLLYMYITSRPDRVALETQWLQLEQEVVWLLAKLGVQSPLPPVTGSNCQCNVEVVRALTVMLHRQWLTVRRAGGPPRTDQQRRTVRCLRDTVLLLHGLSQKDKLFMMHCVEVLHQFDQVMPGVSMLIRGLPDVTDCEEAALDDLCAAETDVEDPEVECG

IC50 [1] [nM]	IC50 [2] [nM]	IC50 [3] [nM]	SMILES
2000	0.395	> 30000	CN(C)C1CCN(c2ccc(-c3ccc4ncc5c(c4c3)n([C@@H]3CCCOC3)c(=O)n5C)cn2)CC1 [Example 34, 8-[6-[4-(dimethylamino)-1-piperidyl]-3-pyridyl]-3-methyl-1-[(3R)-tetrahydropyran-3-yl]imidazo[4,5-c]quinolin-2-one]
16500	1.4	> 30000	CN(C)C1CCN(c2ccc(-c3ccc4ncc5c(c4c3)n([C@H]3CCCOC3)c(=O)n5C)cn2)CC1 [Example 35, 8-[6-[4-(dimethylamino)-1-piperidyl]-3-pyridyl]-3-methyl-1[(3S)-tetrahydropyran-3-yl]imidazo[4,5-c]quinolin-2-one]
22100	3.24	> 30000	CN(C)C1CCN(c2ccc(-c3cc4c(cc3F)ncc3c4n([C@@H]4CCCOC4)c(=O)n3C)cn2)CC1 [Example 40, 8-[6-[4-(dimethylamino)-1-piperidyl]-3-pyridyl]-7-fluoro-3-methyl-1-[(3R)-tetrahydropyran-3-yl]imidazo[4,5-c]quinolin-2-one]
